From patent publication US20210227837A1, “NATAMYCIN FOR THE PRESERVATION OF A BAKED PRODUCT” (DSM IP ASSETS B.V., priority 2018, published 2021)

Experiments:
[1] = neutral pH values; cited from earlier work
[2] = Stability of natamycin solutions in propylene glycol and aqueous potassium formate (residual natamycin by HPLC); format: physicochemical; details: natamycin 1% (w/w)
Protocol: Natamycin concentrations were determined using […] as follows. • HPLC system: Waters iClass • Column: Waters Symmetry C18, 4.6×150 mm, 3.5 μm, Part No. WAT200632, Column no. 1483, Lot no. 0198313011 • Column temperature: 25° C. • Eluent A: 50 mM ammonium acetate buffer pH 5.8 (with acetic acid) • Eluent B: Acetonitrile • Wash: 60% acetonitrile/40% water (v/v) • Injection volume: 10 μl • Injector temperature: 10° C. in darkness • Flow: 1 mL/min
The reverse phase HPLC uses a UV detector to determine the residual concentration of natamycin at 303 nm. A set of standard dilutions containing subsequently increasing concentrations of natamycin in methanol was made and from these a calibration curve was obtained. The concentration of natamycin should not exceed a concentration of 88 mg/L. Generally, the dilutions contained 20 mg of sample and […] of methanol.
A 3.5 M solution of potassium formate in water (15.17 g) was mixed with propylene glycol (80.32 g) and natamycin (1.059 g) and heated for 2.57 h until a final temperature of 105° C. A second batch was prepared by mixing a 3.5 M solution of potassium formate in water (15.07 g) with propylene glycol (80.5 g) and natamycin (1.032 g) and heating for 3.25 h until a final temperature of 105° C. Both batches were filtered over a 2 μm filter and combined to give a solution with a natamycin concentration of 1.08% (w/w). […] Samples of the mixtures were analyzed over time by HPLC for residual natamycin concentration. The shelf life test of the mixtures was done by storage at low temperatures (4-7° C.) and ambient temperatures (20-24° C.).

C[C@@H]1C/C=C/C=C/C=C/C=C/[C@H](O[C@@H]2O[C@H](C)[C@@H](O)[C@H](N)[C@@H]2O)C[C@@H]2O[C@](O)(C[C@@H](O)C[C@H]3O[C@@H]3/C=C/C(=O)O1)C[C@H](O)[C@H]2C(=O)O [natamycin]
solubility in water [1]: around 0.04 g/kg | Residual natamycin (%) ([2]; Blank (water instead of potassium formate), propylene glycol, 4-7° C., pH 6.2, day 0): 80% | Residual natamycin (%) ([2]; Blank (water instead of potassium formate), propylene glycol, 4-7° C., pH 6.2, day 14): 43% | Residual natamycin (%) ([2]; Blank (water instead of potassium formate), propylene glycol, 4-7° C., pH 6.2, day 23): 22% | Residual natamycin (%) ([2]; Blank (water instead of potassium formate), propylene glycol, 4-7° C., pH 6.2, day 32): 12% | Residual natamycin (%) ([2]; Blank (water instead of potassium formate), propylene glycol, 4-7° C., pH 6.2, day 35): 7% | Residual natamycin (%) ([2]; Blank (water instead of potassium formate), propylene glycol, 20-24° C., pH 6.3, day 0): 83% | Residual natamycin (%) ([2]; Blank (water instead of potassium formate), propylene glycol, 20-24° C., pH 6.3, day 5): 72% | Residual natamycin (%) ([2]; Blank (water instead of potassium formate), propylene glycol, 20-24° C., pH 6.3, day 7): 66% | Residual natamycin (%) ([2]; Blank (water instead of potassium formate), propylene glycol, 20-24° C., pH 6.3, day 12): 55% | Residual natamycin (%) ([2]; Blank (water instead of potassium formate), propylene glycol, 20-24° C., pH 6.3, day 14): 52% | Residual natamycin (%) ([2]; Blank (water instead of potassium formate), propylene glycol, 20-24° C., pH 6.3, day 25): 31% | Residual natamycin (%) ([2]; Blank (water instead of potassium formate), propylene glycol, 20-24° C., pH 6.3, day 27): 25% | Residual natamycin (%) ([2]; Blank (water instead of potassium formate), propylene glycol, 20-24° C., pH 6.3, day 43): 18% | Residual natamycin (%) ([2]; Blank (water instead of potassium formate), propylene glycol, 20-24° C., pH 6.3, day 74): 6% | Residual natamycin (%) ([2]; propylene glycol + aqueous potassium formate, 4-7° C., pH 9.5, day 0): 111% | Residual natamycin (%) ([2]; propylene glycol + aqueous potassium formate, 4-7° C., pH 9.5, day 5): 114% | Residual natamycin (%) ([2]; propylene glycol + aqueous potassium formate, 4-7° C., pH 9.5, day 14): 114% | Residual natamycin (%) ([2]; propylene glycol + aqueous potassium formate, 4-7° C., pH 9.5, day 23): 112% | Residual natamycin (%) ([2]; propylene glycol + aqueous potassium formate, 4-7° C., pH 9.5, day 43): 108% | Residual natamycin (%) ([2]; propylene glycol + aqueous potassium formate, 4-7° C., pH 9.8, day 0): 96% | Residual natamycin (%) ([2]; propylene glycol + aqueous potassium formate, 4-7° C., pH 9.8, day 4): 96% | Residual natamycin (%) ([2]; propylene glycol + aqueous potassium formate, 4-7° C., pH 9.8, day 10): 97% | Residual natamycin (%) ([2]; propylene glycol + aqueous potassium formate, 4-7° C., pH 9.8, day 15): 88% | Residual natamycin (%) ([2]; propylene glycol + aqueous potassium formate, 4-7° C., pH 9.8, day 18): 92% | Residual natamycin (%) ([2]; propylene glycol + aqueous potassium formate, 4-7° C., pH 9.8, day 25): 91% | Residual natamycin (%) ([2]; propylene glycol + aqueous potassium formate, 4-7° C., pH 9.8, day 42): 88% | Residual natamycin (%) ([2]; propylene glycol + aqueous potassium formate, 4-7° C., pH 9.8, day 53): 90% | Residual natamycin (%) ([2]; propylene glycol + aqueous potassium formate, 4-7° C., pH 9.8, day 60): 96% | Residual natamycin (%) ([2]; propylene glycol + aqueous potassium formate, 4-7° C., pH 9.8, day 80): 87% | Residual natamycin (%) ([2]; propylene glycol + aqueous potassium formate, 4-7° C., pH lowered to 5.9 by formic acid, day 0): 83% | Residual natamycin (%) ([2]; propylene glycol + aqueous potassium formate, 4-7° C., pH lowered to 5.9 by formic acid, day 5): 66% | Residual natamycin (%) ([2]; propylene glycol + aqueous potassium formate, 4-7° C., pH lowered to 5.9 by formic acid, day 14): 45% | Residual natamycin (%) ([2]; propylene glycol + aqueous potassium formate, 4-7° C., pH lowered to 5.9 by formic acid, day 23): 21% | Residual natamycin (%) ([2]; propylene glycol + aqueous potassium formate, 4-7° C., pH lowered to 5.9 by formic acid, day 43): 2% | Residual natamycin (%) ([2]; propylene glycol + aqueous potassium formate, 4-7° C., pH lowered to 8.8 by formic acid, day 0): 94% | Residual natamycin (%) ([2]; propylene glycol + aqueous potassium formate, 4-7° C., pH lowered to 8.8 by formic acid, day 5): 96% | Residual natamycin (%) ([2]; propylene glycol + aqueous potassium formate, 4-7° C., pH lowered to 8.8 by formic acid, day 14): 94% | Residual natamycin (%) ([2]; propylene glycol + aqueous potassium formate, 4-7° C., pH lowered to 8.8 by formic acid, day 23): 93% | Residual natamycin (%) ([2]; propylene glycol + aqueous potassium formate, 4-7° C., pH lowered to 8.8 by formic acid, day 43): 86% | Residual natamycin (%) ([2]; propylene glycol + aqueous potassium formate, 4-7° C., pH lowered to 9.0 by formic acid, day 0): 93% | Residual natamycin (%) ([2]; propylene glycol + aqueous potassium formate, 4-7° C., pH lowered to 9.0 by formic acid, day 5): 97% | Residual natamycin (%) ([2]; propylene glycol + aqueous potassium formate, 4-7° C., pH lowered to 9.0 by formic acid, day 14): 94% | Residual natamycin (%) ([2]; propylene glycol + aqueous potassium formate, 4-7° C., pH lowered to 9.0 by formic acid, day 23): 93% | Residual natamycin (%) ([2]; propylene glycol + aqueous potassium formate, 4-7° C., pH lowered to 9.0 by formic acid, day 43): 92% | Residual natamycin (%) ([2]; propylene glycol + aqueous potassium formate, 20-24° C., pH 9.8, day 0): 92% | Residual natamycin (%) ([2]; propylene glycol + aqueous potassium formate, 20-24° C., pH 9.8, day 5): 95% | Residual natamycin (%) ([2]; propylene glycol + aqueous potassium formate, 20-24° C., pH 9.8, day 7): 95% | Residual natamycin (%) ([2]; propylene glycol + aqueous potassium formate, 20-24° C., pH 9.8, day 9): 92% | Residual natamycin (%) ([2]; propylene glycol + aqueous potassium formate, 20-24° C., pH 9.8, day 12): 87% | Residual natamycin (%) ([2]; propylene glycol + aqueous potassium formate, 20-24° C., pH 9.8, day 18): 92% | Residual natamycin (%) ([2]; propylene glycol + aqueous potassium formate, 20-24° C., pH 9.8, day 20): 87% | Residual natamycin (%) ([2]; propylene glycol + aqueous potassium formate, 20-24° C., pH 9.8, day 27): 86% | Residual natamycin (%) ([2]; propylene glycol + aqueous potassium formate, 20-24° C., pH 9.8, day 32): 82% | Residual natamycin (%) ([2]; propylene glycol + aqueous potassium formate, 20-24° C., pH 9.8, day 35): 83% | Residual natamycin (%) ([2]; propylene glycol + aqueous potassium formate, 20-24° C., pH 9.8, day 43): 80% | Residual natamycin (%) ([2]; propylene glycol + aqueous potassium formate, 20-24° C., pH 9.8, day 74): 69%
